According to patent US10343991B2, “C5, C6 substituted and/or fused oxindoles as anti-cancer agents and process for preparation thereof” (Council of Scientific & Industrial Research, priority 2016, dated 2019):

Key:
THP1 cells [1] = test: Trypan blue assay, cell viability; assay type: cell-based; conditions: Homo sapiens, THP-1, 48 h, average of three experiments
Description: (§1) In order to determine the anticancer potency, the synthesized oxindole derivatives were evaluated for anti-cancer activity various different human cancer cell lines, Leukemic Cancer (THP1), human breast cancer (MDA-MB-231 and MCF-7), human cervix carcinoma cells (HeLa), prostate cancer (DU-145) cellS by using standard Trypan blue and SRB assays. The preliminary anticancer activity for all the synthesized compounds was done at 10 μM concentration and cell inhibition was determined. […] The experiment was repeated thrice and the average values were taken.
The assay was carried out in a 24 well flat-bottomed microtiter tissue culture plate. THP1 cells were seeded in the plates with a density of 4×10^4 cells/well (counted by tryphan blue exclusion dye method). Compounds were added to obtain a concentration of 10 μM. Sunitinib was used as positive control. Plates were incubated for 48 h at 37° C. in a humidified incubator with 5% CO2. At the end of the treatments, cells (THP1) were resuspended in 0.4% trypan blue and percent cell viability was counted using countess cell chamber (Life Technologies).

[2] = test system: VEGF tyrosin kinase (VEGFR); test: VEGFR activity, phosphotyrosine (PY) cell-based ELISA; conditions: 10 μM, 60 min pretreatment, VEGF stimulation
Description: Briefly, cells at 60-75% confluence were placed in serum-free medium for 18 h to reduce the background of phosphorylation. Cells were then pretreated for 60 min with 2b, 3d, 3e, 3g, 3h, 3i, 3j and 3k compounds at 10 μM concentration followed by an optimized dose of purified growth factor (VEGF). The reaction was stopped, and cells were permeabilized by quickly removing the media from the cells and adding ice-cold Tris-buffered saline (TBS) containing 0.05% triton X-100, protease inhibitor cocktail, and tyrosine phosphatase inhibitor cocktail (both from Sigma Chemical). The TBS solution was then removed, and cells were fixed to the plate by heat and further incubation in 70% ethanol. Cells were further exposed to block (TBS with 1% BSA) and washed, and then a horseradish peroxidase (HRP)-conjugated phosphotyrosine antibody was added. The antibody was removed; cells were washed again and exposed to an enhanced luminol ELISA substrate, and light emission was measured using a plate reader. The known RTK-specific kinase inhibitor (Sunitinib) was used as positive control for kinase inhibition.

DU-145 cells = test: SRB assay, cell viability; assay type: cell-based; conditions: Homo sapiens, 48 h, average of three experiments, read-out: DU145 Cell Viability at 10 μM
Description: as §1
(§2) The assay was carried out in a 24 well flat-bottomed microtiter tissue culture plate. Cells were seeded in the plates with a density of 4×10^4 cells/well (counted by tryphan blue exclusion dye method). After 24 hours media was replaced with fresh media and then compounds were added to obtain a concentrations of 10 μM. Sunitinib was used as positive control. Plates were incubated for 48 h at 37° C. in a humidified incubator with 5% CO2. After 48 hours without removing the cell culture supernatant, 500 μl of cold 10% (wt/vol) TCA was added to each well, and the plates were incubated at 4° C. for 1 h. The plates were washed for four times with water then rinsed with water several times to remove TCA, serum, proteins and excess water was removed using paper towels and air dried. 100 μl of 0.4% (wt/vol in 1% acetic acid) SRB solution was added to each well. Plates were left at room temperature for 30 min and then the plates were quickly rinsed for four times with 1% (vol/vol) acetic acid to remove unbound dye were and then air dried until no moisture was visible. 100 μl of 10 mM Tris base solution (pH 10.5) was added to each well and shake for 5 min to solubilize the protein-bound dye. Optical density was measured at 564 nm in a micro plate reader.

MCF-7 cells = test: SRB assay, cell viability; assay type: cell-based; conditions: Homo sapiens, MCF7, 48 h, average of three experiments
Description: as §1, §2

MDA-MB-231 cells = test: SRB assay, cell viability; assay type: cell-based; conditions: Homo sapiens, 48 h, average of three experiments
Description: as §1, §2

HeLa cells = test: SRB assay, cell viability; assay type: cell-based; conditions: Homo sapiens, 48 h, average of three experiments
Description: as §1, §2

THP1 cells [3] = assay type: cell-based, human; conditions: THP-1 cells, 10 μM, 24 h; untreated cells 68.3%
Description: To understand the anticancer activity mechanism of the synthesized oxindole derivatives, we analysed the cell cycle alteration phase distribution of the cells by treating THP1 cells with oxindole derivatives at 10 μM, for 24 h and analyzed by flow cytometry. Treatment of THP-1 cells with compounds 2b, 3d, 3e, 3g, 3h, 3i, 3j and 3k caused an accumulation of 98.5%, 94.3%, 96.7%, 97%, 98%, 83%, 93.5%, 98.1% cells in the G0/G1 phase respectively as compared to 68.3% in untreated cells and 99.5% in Sunitinib treated cells. […] (Fig. x and Table .y).
The THP1 cells were treated with the active compounds at […] and incubated for about 24 h. The cells were fixed in ice cold ethanol solvent at 4° C. for about 30 minutes. The ethanol was removed and cells were treated with 1 mL of DNA staining solution (2 mg of RNase and 0.2 mg of propidium iodide (PI)) for 30 minutes. The DNA content was measured by flow cytometry (BD FACS C anto II). Results were analysed using FCS express 4 plus software.

SMILES	melting point	viability at 10 µM (THP1 cells [1])	inhibitory activity of VEGF tyrosin kinase activity [2]	viability at 10 µM (DU-145 cells)	viability at 10 µM (MCF-7 cells)	viability at 10 µM (MDA-MB-231 cells)	viability at 10 µM (HeLa cells)	accumulation of cells in the G0/G1 phase (THP1 cells [3])
COc1cccc(C(C#CCOCc2ccccc2)c2cc3c(cc2O)NC(=O)C3)c1OC (stereo not shown) [Compound 2b, 5-(4-(Benzyloxy)-1-(2,3-dimethoxyphenyl)but-2-ynyl)-6-hydroxyindolin-2-one]	177 to 179 °C	48.5%	inhibitory activity	51.2%	39.8%	42.8%	40.4%	98.5%
CN(C)c1ccc(/C=C2\C(=O)Nc3cc(O)c(C(C#Cc4ccccc4)c4ccccc4)cc32)c2ccccc12 (stereo not shown) [Compound 3e, (Z)-3-((4-(dimethylamino)naphthalen-1-yl)methylene)-5-(1,3-diphenylprop-2-yn-1-yl)-6-hydroxyindolin-2-one]	188 to 192 °C	125%	inhibitory activity	48.2%	78.2%	85.9%	153%	96.7%
